According to PubChem BioAssay AID1919002 (Molecular Pharmacology Branch, DTP, NCI, 2023):
Several values for one entry are separate records, joined by “and”; a condition that tells them apart may be missing. Equal values may be shown once. One block for each molecule: values may come before it.

Tested on: 743489-274-T-PDC complex spheroid growth
Experiment: Anticancer human tumor 743489-274-T-PDC patient-derived renal cell carcinoma cell line growth inhibition [AhR]
Settings: for viability, T/C: stronger effect = lower value
Source text: Multicellular complex tumor spheroid response to aryl hydrocarbon receptor antagonists in combination with a variety of drugs and investigational agents in selected tumor cell lines
The current study was undertaken to assess response to aryl hydrocarbon receptor antagonists in combination with standard-of-care drugs and investigational agents in solid tumor complex spheroid models. Complex spheroids include a stromal component modeled by human endothelial cells (HUVEC) and fibroblasts modeled by human mesenchymal stem cells (MSCs). The concentration ranges selected for each drug and investigational agent were based upon clinically achievable concentrations if the clinical Cmax of the agent was known.
Compounds. The drugs and investigational agents: BAY 2416964 (NSC825713), GNF351 (NSC835774), CH-223191 (NSC835775), CPI-455 (NSC825282), aza-TdCyd (NSC777586), decitabine (NSC127716), belinostat (NSC758774), entinostat (NSC756642), pevonedistat (NSC761192), tazemetostat (NSC777109), talazoparib (NSC765396), olaparib (NSC753686), selinexor (NSC780203), nedisertib (M3814, NSC802822), bortezomib (NSC756655), venetoclax (NSC766270), doxorubicin (NSC123127), elimusertib (BAY189344, NSC800525), ceralasertib (AZD6738, NSC777638), TAK-243 (NSC785004), alisertib (NSC759677), etoposide (NSC141540), topotecan (NSC609699), eribulin (NSC707389), gemcitabine (NSC613327), carboplatin (NSC241240), cisplatin (NSC119875), and SN-38 (NSC673596) were obtained from the National Cancer Institute (NCI) Developmental Therapeutics Program Chemical Repository (32). The FDA-approved anticancer drug set is available from the Developmental Therapeutics Program at https://dtp.cancer.gov/organization/dscb/obtaining/available plates.htm. […] The stock solutions were prepared in dimethyl sulfoxide (DMSO, Sigma-Aldrich, St. Louis, MO, cat. D2650), except for the platinum compounds which were prepared in saline (Quality Biological, Gaithersburg, MD, cat. 114-055-101), at 800-fold the tested concentration and stored at -70 degrees C prior to their use. All drugs and investigational agents were tested over a range starting from a high concentration at or near the clinical Cmax and decreasing in half-log increments. If the clinical Cmax for an agent had not been determined, the highest concentration tested was 10 microM (Table 1).
Cell Culture. All cells were maintained in an incubator at 37 degrees C and 5% CO2 with 95% humidity. The PDC lines were cultured according to standard operating procedures established by the NCI PDMR (https://pdmr.cancer.gov). Briefly, all PDCs were thawed and cultured in Matrigel-coated flasks prepared with a working solution of 1X Ham's F-12 nutrient mix, without supplementation (Invitrogen, Waltham, MA, cat. 11765054), 100 U/mL penicillin-streptomycin (Invitrogen, cat. 15140122), and 2.5% Matrigel (Corning Inc., Corning, NY, cat. 354248) for the first three passages. All PDCs were cultured in complete DMEM/F-12 media containing advanced DMEM/F-12 (Invitrogen, cat. 12634028), 4.9% defined fetal bovine serum, heat inactivated (HyClone Laboratories Inc., Logan, UT, cat. SH30070.03HI), 389 ng/mL hydrocortisone (Sigma-Aldrich, cat. H4001), 9.7 ng/mL human EGF recombinant protein (Invitrogen, cat. PHG0313), 23.4 microg/mL adenine (Sigma-Aldrich, cat. A2786), 97.3 U/mL penicillin-streptomycin (Invitrogen, cat. 15140122), 1.9 mM L-glutamine (Invitrogen, cat. 25030081), and 9.7 microM Y-27632 dihydrochloride (Tocris Bioscience, Bristol, United Kingdom, cat. 1254). The PDCs were cultured in complete DMEM/F12 media without 10 microM Y-27632 dihydrochloride for at least two passages prior to the screen. The established cell lines NCI-H1341 and […] were cultured in DMEM/F-12, HEPES (Invitrogen, cat. 11330032), 5% defined fetal bovine serum (HyClone Laboratories Inc., cat. SH30070.03), ITS premix universal culture supplement [insulin (5 microg/mL), transferrin (5 microg/mL), and selenious acid (5 ng/mL)] […]

[1] = curve of first compound, second compound 0.1 µM
[2] = curve of first compound, second compound 0.316 µM
[3] = curve of first compound, second compound 1 µM
[4] = curve of first compound, second compound 3.16 µM
[5] = curve of first compound, second compound 10 µM
[6] = second compound 0.1 µM, first compound 0.0316 µM
[7] = second compound 0.1 µM, first compound 0.1 µM
[8] = second compound 0.1 µM, first compound 0.316 µM
[9] = second compound 0.1 µM, first compound 1 µM
[10] = second compound 0.1 µM, first compound 3.16 µM
[11] = second compound 0.1 µM, first compound 10 µM
[12] = second compound 0.316 µM, first compound 0.0316 µM
[13] = second compound 0.316 µM, first compound 0.1 µM
[14] = second compound 0.316 µM, first compound 0.316 µM
[15] = second compound 0.316 µM, first compound 1 µM
[16] = second compound 0.316 µM, first compound 3.16 µM
[17] = second compound 0.316 µM, first compound 10 µM
[18] = second compound 1 µM, first compound 0.0316 µM
[19] = second compound 1 µM, first compound 0.1 µM
[20] = second compound 1 µM, first compound 0.316 µM
[21] = second compound 1 µM, first compound 1 µM
[22] = second compound 1 µM, first compound 3.16 µM
[23] = second compound 1 µM, first compound 10 µM
[24] = second compound 3.16 µM, first compound 0.0316 µM
[25] = second compound 3.16 µM, first compound 0.1 µM
[26] = second compound 3.16 µM, first compound 0.316 µM
[27] = second compound 3.16 µM, first compound 1 µM
[28] = second compound 3.16 µM, first compound 3.16 µM
[29] = second compound 3.16 µM, first compound 10 µM
[30] = second compound 10 µM, first compound 0.0316 µM
[31] = second compound 10 µM, first compound 0.1 µM
[32] = second compound 10 µM, first compound 0.316 µM
[33] = second compound 10 µM, first compound 1 µM
[34] = second compound 10 µM, first compound 3.16 µM
[35] = second compound 10 µM, first compound 10 µM
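Further: spheroids exposed to agents for 7 days before readout.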
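Wherever viability, T/C is given: 100% = DMSO vehicle control wells.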

- IC50 (curve of compound): > 10 µM
Compound: Nc1ccn(C2OC(CO)C(O)C2(F)F)c(=O)n1 (configuration not stated)
- viability, T/C (compound 0.0316 µM): 92.4% and 67.2% and 87.8%
- viability, T/C (compound 0.1 µM): 73.3% and 58.7% and 72.8%
- viability, T/C (compound 0.316 µM): 69.8% and 60.6% and 73.5%
- viability, T/C (compound 1 µM): 63% and 53.5% and 70.8%
- viability, T/C (compound 3.16 µM): 71.4% and 61.4% and 66.6%
- viability, T/C (compound 10 µM): 73.7% and 62.2% and 66.3%

- IC50 [1]: > 10 µM
- IC50 [2]: > 10 µM
- IC50 [3]: > 10 µM
- IC50 [4]: > 10 µM
- IC50 [5]: > 10 µM
Compound: CC1(C)CCC(CN2CCN(c3ccc(C(=O)NS(=O)(=O)c4ccc(NCC5CCOCC5)c([N+](=O)[O-])c4)c(Oc4cnc5[nH]ccc5c4)c3)CC2)=C(c2ccc(Cl)cc2)C1 + Cc1ccccc1N=Nc1ccc(NC(=O)c2ccnn2C)c(C)c1
- viability, T/C [6]: 91.9%
- viability, T/C [7]: 92.9%
- viability, T/C [8]: 93.9%
- viability, T/C [9]: 94.7%
- viability, T/C [10]: 96.1%
- viability, T/C [11]: 94.3%
- viability, T/C [12]: 95.7%
- viability, T/C [13]: 94.9%
- viability, T/C [14]: 97.5%
- viability, T/C [15]: 81.8%
- viability, T/C [16]: 87.5%
- viability, T/C [17]: 81.6%
- viability, T/C [18]: 89.8%
- viability, T/C [19]: 88.4%
- viability, T/C [20]: 99.6%
- viability, T/C [21]: 99.2%
- viability, T/C [22]: 89.1%
- viability, T/C [23]: 78.3%
- viability, T/C [24]: 90.1%
- viability, T/C [25]: 91%
- viability, T/C [26]: 93.8%
- viability, T/C [27]: 85.6%
- viability, T/C [28]: 75.5%
- viability, T/C [29]: 81.8%
- viability, T/C [30]: 84.8%
- viability, T/C [31]: 85.2%
- viability, T/C [32]: 90.1%
- viability, T/C [33]: 80%
- viability, T/C [34]: 104%
- viability, T/C [35]: 82.1%

- IC50 [1]: > 3 µM
- IC50 [2]: > 3 µM
- IC50 [3]: > 3 µM
- IC50 [4]: > 3 µM
- IC50 [5]: > 3 µM
Compound: CCN(c1cc(-c2ccc(CN3CCOCC3)cc2)cc(C(=O)NCc2c(C)cc(C)[nH]c2=O)c1C)C1CCOCC1 + Cc1ccccc1N=Nc1ccc(NC(=O)c2ccnn2C)c(C)c1
- viability, T/C (second compound 0.1 µM, first compound 0.00949 µM): 91.2%
- viability, T/C (second compound 0.1 µM, first compound 0.03 µM): 88.2%
- viability, T/C (second compound 0.1 µM, first compound 0.0949 µM): 93.7%
- viability, T/C (second compound 0.1 µM, first compound 0.3 µM): 84.5%
- viability, T/C (second compound 0.1 µM, first compound 0.949 µM): 90.8%
- viability, T/C (second compound 0.1 µM, first compound 3 µM): 90.4%
- viability, T/C (second compound 0.316 µM, first compound 0.00949 µM): 82.1%
- viability, T/C (second compound 0.316 µM, first compound 0.03 µM): 93.3%
- viability, T/C (second compound 0.316 µM, first compound 0.0949 µM): 86.2%
- viability, T/C (second compound 0.316 µM, first compound 0.3 µM): 77.3%
- viability, T/C (second compound 0.316 µM, first compound 0.949 µM): 86.6%
- viability, T/C (second compound 0.316 µM, first compound 3 µM): 84.2%
- viability, T/C (second compound 1 µM, first compound 0.00949 µM): 88.6%
- viability, T/C (second compound 1 µM, first compound 0.03 µM): 83.2%
- viability, T/C (second compound 1 µM, first compound 0.0949 µM): 89.5%
- viability, T/C (second compound 1 µM, first compound 0.3 µM): 94.3%
- viability, T/C (second compound 1 µM, first compound 0.949 µM): 81%
- viability, T/C (second compound 1 µM, first compound 3 µM): 99.6%
- viability, T/C (second compound 3.16 µM, first compound 0.00949 µM): 76%
- viability, T/C (second compound 3.16 µM, first compound 0.03 µM): 77%
- viability, T/C (second compound 3.16 µM, first compound 0.0949 µM): 77.2%
- viability, T/C (second compound 3.16 µM, first compound 0.3 µM): 74.5%
- viability, T/C (second compound 3.16 µM, first compound 0.949 µM): 81%
- viability, T/C (second compound 3.16 µM, first compound 3 µM): 82%
- viability, T/C (second compound 10 µM, first compound 0.00949 µM): 72.2%
- viability, T/C (second compound 10 µM, first compound 0.03 µM): 84.3%
- viability, T/C (second compound 10 µM, first compound 0.0949 µM): 85.9%
- viability, T/C (second compound 10 µM, first compound 0.3 µM): 71.7%
- viability, T/C (second compound 10 µM, first compound 0.949 µM): 77.9%
- viability, T/C (second compound 10 µM, first compound 3 µM): 73.1%

- IC50 [1]: > 10 µM
- IC50 [2]: > 10 µM
- IC50 [3]: > 10 µM
- IC50 [4]: > 10 µM
- IC50 [5]: > 10 µM
Compound: CC1(C)CCC(CN2CCN(c3ccc(C(=O)NS(=O)(=O)c4ccc(NCC5CCOCC5)c([N+](=O)[O-])c4)c(Oc4cnc5[nH]ccc5c4)c3)CC2)=C(c2ccc(Cl)cc2)C1 + CC(CO)NC(=O)c1cc(-c2ccc(Cl)cc2)nn(-c2cnn(C)c2)c1=O
- viability, T/C [6]: 96.8%
- viability, T/C [7]: 97.4%
- viability, T/C [8]: 90.6%
- viability, T/C [9]: 93.7%
- viability, T/C [10]: 106%
- viability, T/C [11]: 96.3%
- viability, T/C [12]: 110%
- viability, T/C [13]: 95%
- viability, T/C [14]: 93.1%
- viability, T/C [15]: 89%
- viability, T/C [16]: 90.3%
- viability, T/C [17]: 94.8%
- viability, T/C [18]: 92%
- viability, T/C [19]: 88.3%
- viability, T/C [20]: 98.1%
- viability, T/C [21]: 86%
- viability, T/C [22]: 91.9%
- viability, T/C [23]: 95.8%
- viability, T/C [24]: 89.8%
- viability, T/C [25]: 96.3%
- viability, T/C [26]: 107%
- viability, T/C [27]: 95.7%
- viability, T/C [28]: 98.9%
- viability, T/C [29]: 93.6%
- viability, T/C [30]: 95.4%
- viability, T/C [31]: 112%
- viability, T/C [32]: 93.1%
- viability, T/C [33]: 93.9%
- viability, T/C [34]: 95%
- viability, T/C [35]: 104%
